This passage reports IC50 results from patent US20100160356A1, “NOVEL CYCLOBUTYL COMPOUNDS AS KINASE INHIBITORS” (priority 2006, published 2010).

Molecules are shown by their SMILES.

The target of one assay is IGF1R (Homo sapiens, UniProt P08069). Kind of assay: Inhibition of IGF1R (flashplate assay). Format: biochemical. The note with it: flashplate method. In outline: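 IGF1R kinase incubated 1 hr at room temperature with ^33P-ATP and biotinylated poly(Glu,Tyr)4:1 ± test compound; stopped with EDTA, wells washed after 30 min. Bound radioactivity counted by scintillation; IC50 calculated.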
Chain of IGF1R (P08069 31-1367, species assumed): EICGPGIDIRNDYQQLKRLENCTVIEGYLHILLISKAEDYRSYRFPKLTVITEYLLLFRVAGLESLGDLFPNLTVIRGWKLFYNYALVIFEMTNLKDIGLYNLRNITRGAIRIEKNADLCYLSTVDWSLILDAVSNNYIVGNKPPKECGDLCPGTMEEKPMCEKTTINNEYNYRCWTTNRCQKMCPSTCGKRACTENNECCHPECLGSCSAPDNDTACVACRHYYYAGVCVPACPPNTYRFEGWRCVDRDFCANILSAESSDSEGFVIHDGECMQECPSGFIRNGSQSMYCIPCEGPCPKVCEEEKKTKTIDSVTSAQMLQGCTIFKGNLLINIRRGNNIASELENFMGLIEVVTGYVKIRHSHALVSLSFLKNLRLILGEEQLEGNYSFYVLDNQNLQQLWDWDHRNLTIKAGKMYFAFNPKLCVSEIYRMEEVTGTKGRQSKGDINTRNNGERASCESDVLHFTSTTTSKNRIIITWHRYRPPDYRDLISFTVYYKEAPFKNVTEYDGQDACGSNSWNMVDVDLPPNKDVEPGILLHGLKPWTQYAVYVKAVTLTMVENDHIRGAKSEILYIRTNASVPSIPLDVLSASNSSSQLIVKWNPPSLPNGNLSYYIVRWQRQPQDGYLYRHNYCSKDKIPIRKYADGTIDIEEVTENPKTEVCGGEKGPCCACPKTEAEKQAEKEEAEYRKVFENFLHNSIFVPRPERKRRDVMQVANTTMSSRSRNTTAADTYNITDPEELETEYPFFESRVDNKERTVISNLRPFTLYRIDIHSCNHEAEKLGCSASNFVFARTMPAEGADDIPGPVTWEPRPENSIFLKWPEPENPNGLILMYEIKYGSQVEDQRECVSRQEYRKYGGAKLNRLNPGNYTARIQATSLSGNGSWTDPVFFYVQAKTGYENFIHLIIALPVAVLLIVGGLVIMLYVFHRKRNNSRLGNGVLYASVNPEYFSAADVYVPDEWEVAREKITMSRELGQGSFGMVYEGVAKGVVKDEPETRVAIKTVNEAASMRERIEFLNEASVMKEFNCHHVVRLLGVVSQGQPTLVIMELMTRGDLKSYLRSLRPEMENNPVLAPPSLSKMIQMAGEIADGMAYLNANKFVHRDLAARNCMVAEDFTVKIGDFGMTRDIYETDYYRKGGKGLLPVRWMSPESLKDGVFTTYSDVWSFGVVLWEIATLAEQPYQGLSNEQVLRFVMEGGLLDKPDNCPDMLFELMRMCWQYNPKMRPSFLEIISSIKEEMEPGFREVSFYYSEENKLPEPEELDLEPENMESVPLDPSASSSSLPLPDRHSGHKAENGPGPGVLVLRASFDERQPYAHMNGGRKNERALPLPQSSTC

For assay [1], the target named is T1, FAK (focal adhesion kinase) (Homo sapiens, UniProt Q05397).
T1 construct: endogenous in cells; host or cells: Calu-6 or HT-29
T1 sequence (Q05397 whole entry): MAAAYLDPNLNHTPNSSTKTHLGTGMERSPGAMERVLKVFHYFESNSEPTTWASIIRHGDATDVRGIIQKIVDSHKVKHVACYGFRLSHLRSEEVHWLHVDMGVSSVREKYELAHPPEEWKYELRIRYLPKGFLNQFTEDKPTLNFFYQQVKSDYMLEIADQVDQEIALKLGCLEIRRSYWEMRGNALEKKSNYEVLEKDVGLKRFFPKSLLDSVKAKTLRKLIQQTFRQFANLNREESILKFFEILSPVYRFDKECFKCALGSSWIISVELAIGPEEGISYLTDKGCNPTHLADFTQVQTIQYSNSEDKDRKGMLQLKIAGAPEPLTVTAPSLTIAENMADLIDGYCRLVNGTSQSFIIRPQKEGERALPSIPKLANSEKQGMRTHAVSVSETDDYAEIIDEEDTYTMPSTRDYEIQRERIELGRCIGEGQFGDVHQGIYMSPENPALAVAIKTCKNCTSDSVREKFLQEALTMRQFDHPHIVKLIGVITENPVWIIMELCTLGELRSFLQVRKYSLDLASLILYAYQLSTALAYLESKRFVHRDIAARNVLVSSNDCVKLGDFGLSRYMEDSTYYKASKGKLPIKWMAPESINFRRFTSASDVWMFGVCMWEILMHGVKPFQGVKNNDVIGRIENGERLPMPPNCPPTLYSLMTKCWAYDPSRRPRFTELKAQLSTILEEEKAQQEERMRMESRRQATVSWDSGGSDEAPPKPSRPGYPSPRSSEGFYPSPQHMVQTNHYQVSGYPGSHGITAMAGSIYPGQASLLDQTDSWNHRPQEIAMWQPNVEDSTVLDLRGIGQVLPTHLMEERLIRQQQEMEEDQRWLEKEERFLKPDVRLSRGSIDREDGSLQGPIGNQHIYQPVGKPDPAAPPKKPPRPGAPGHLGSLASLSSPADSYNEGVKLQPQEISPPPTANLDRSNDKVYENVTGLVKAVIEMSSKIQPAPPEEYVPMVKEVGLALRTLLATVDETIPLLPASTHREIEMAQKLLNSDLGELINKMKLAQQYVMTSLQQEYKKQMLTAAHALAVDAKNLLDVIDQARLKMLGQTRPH
Kind of assay: Inhibition of FAK (ELISA assay), FAK phosphorylation in cells. The note with it: human cells with FAK amplification. Format: cell-based. In a few lines:
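Cells pretreated 45 min with increasing compound concentrations, with a reference inhibitor series as internal control. FAK from lysates captured by specific antibody on ELISA plate or LUMINEX beads; tyrosine phosphorylation detected with anti-phosphotyrosine antibody by chemiluminescence or fluorescence.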

Another assay deals with VEGF-2 (Homo sapiens, UniProt P35968). Kind of assay: Inhibition of VEGF-2 (flashplate assay). Format: biochemical. The note with it: flashplate method. In a few lines:
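Kinase incubated 3 hr at room temperature with ^33P-ATP and biotinylated poly(Glu, Tyr)4:1, with or without test substance. Stopped with EDTA, wells washed after 30 min; incorporated radioactivity counted by scintillation and IC50 calculated.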

A further assay has as its target TIE2 (Homo sapiens, UniProt Q02763). The assay is described as follows: Inhibition of TIE2 (flashplate assay). Format: biochemical. The note with it: flashplate method. In a few lines:
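Radiometric flashplate kinase assay: TIE2 incubated 3 h at room temperature with ³³P-ATP and biotinylated poly(Glu,Tyr) 4:1, with or without test compound. Reaction stopped with EDTA, wells washed, incorporated radioactivity counted by scintillation; IC50 calculated from the data.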

A further assay concerns the target PDGFRβ (Homo sapiens, UniProt P09619). The assay is described as follows: Inhibition of PDGFRβ (flashplate assay). Format: biochemical. The note with it: flashplate method. In a few lines:
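Readout is scintillation counting of ^33P incorporated by PDGFRβ autophosphorylation after EDTA stop and washes. Kinase and ^33P-ATP were incubated with or without compound for 3 hr at room temperature. IC50 derived from these counts.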

In a further assay the target is FAK (Homo sapiens, UniProt Q05397). Kind of assay: Inhibition of FAK (flashplate assay). Format: biochemical. The note with it: flashplate method. Here is the method: The test plates used are 384-well flashplate microtitre plates from Perkin Elmer (USA). The components of the kinase reaction are pipetted into the assay plate. The FAK kinase is incubated for 3 hr. with radioactively labelled ^33P-ATP in the presence and absence of test substances in a total volume of 100 μl at room temperature together with biotinylated poly(Glu, Tyr)4:1. The reaction is terminated using 25 μl of a 200 mM EDTA solution. After incubation for a further 30 min at room temperature, the supernatants are removed by suction, and the wells are washed three times with 100 μl of 0.9% NaCl solution each time. The radioactivity is measured using a Topcount scintillation counter (PerkinElmer, USA). IC50 values are calculated using the RS1 computer program.
Chain of FAK (Q05397 whole entry, species assumed): as the sequence (Q05397 whole entry) above

Chain of PDGFRβ (P09619 33-1106, species assumed): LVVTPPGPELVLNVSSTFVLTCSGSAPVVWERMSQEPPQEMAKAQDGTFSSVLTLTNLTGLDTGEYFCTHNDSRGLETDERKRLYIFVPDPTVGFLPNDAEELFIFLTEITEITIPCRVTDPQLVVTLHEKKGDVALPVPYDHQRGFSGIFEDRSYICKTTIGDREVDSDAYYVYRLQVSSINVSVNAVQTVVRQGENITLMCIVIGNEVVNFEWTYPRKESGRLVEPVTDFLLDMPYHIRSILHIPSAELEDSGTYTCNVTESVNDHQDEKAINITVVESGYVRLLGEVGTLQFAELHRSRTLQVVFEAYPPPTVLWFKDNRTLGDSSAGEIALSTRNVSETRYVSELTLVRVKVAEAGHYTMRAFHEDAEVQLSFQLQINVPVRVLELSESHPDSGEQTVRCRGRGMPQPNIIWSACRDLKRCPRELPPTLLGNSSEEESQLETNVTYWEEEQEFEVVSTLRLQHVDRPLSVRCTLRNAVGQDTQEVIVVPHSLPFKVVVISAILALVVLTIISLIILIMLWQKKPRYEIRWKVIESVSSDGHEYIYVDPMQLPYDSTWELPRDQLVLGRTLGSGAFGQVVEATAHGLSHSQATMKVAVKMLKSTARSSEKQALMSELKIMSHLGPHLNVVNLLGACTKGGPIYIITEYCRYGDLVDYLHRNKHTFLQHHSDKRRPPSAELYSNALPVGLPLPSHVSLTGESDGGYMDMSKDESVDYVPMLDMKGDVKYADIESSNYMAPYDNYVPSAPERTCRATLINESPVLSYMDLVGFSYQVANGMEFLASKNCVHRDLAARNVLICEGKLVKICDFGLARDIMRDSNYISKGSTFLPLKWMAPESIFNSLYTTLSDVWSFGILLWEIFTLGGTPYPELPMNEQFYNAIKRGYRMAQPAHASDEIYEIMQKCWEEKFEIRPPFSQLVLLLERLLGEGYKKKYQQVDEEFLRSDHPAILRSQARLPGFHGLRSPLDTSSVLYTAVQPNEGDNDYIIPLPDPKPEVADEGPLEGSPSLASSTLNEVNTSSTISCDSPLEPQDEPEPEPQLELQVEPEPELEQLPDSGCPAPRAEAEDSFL
Chain of VEGF-2 (P35968 20-1356): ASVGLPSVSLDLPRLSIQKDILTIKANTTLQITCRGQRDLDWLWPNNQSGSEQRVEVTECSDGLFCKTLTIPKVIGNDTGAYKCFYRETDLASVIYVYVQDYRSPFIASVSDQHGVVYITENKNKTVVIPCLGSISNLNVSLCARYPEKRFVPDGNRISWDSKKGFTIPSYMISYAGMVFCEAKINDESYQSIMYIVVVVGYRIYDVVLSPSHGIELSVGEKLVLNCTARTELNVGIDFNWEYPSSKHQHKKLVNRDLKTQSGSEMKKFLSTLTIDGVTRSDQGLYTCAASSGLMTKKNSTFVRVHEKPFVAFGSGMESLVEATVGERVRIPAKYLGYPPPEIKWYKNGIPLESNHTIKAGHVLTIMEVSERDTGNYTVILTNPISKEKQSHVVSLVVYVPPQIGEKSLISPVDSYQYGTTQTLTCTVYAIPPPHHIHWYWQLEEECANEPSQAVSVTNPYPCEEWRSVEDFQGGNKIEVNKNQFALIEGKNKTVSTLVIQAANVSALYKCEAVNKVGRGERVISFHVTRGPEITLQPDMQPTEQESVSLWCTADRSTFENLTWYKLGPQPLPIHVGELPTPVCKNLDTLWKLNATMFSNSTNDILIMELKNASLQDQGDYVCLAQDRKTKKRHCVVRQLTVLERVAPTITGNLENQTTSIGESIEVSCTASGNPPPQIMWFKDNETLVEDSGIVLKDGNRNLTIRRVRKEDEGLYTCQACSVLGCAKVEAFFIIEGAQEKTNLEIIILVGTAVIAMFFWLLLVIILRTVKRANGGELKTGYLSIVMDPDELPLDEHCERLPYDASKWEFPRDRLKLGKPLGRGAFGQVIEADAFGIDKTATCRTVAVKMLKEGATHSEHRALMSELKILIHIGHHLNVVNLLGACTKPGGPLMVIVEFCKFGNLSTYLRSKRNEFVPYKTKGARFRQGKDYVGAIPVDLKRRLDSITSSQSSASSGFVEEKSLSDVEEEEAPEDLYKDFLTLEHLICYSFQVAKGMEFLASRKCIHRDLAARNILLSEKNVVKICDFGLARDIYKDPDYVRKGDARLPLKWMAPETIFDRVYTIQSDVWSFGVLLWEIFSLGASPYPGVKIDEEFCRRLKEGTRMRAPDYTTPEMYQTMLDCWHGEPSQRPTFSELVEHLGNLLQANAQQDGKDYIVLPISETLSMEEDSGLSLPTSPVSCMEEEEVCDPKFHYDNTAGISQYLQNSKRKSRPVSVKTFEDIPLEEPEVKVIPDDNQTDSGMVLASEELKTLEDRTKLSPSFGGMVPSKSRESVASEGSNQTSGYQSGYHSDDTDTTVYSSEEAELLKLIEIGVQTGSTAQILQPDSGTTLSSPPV

Regarding `NCC1CC(n2cc(-c3cc4ccccc4o3)c3c(N)ncnc32)C1` (centres unmarked) [Compound 37], the IC50 on IGF1R stood at 8400 nM; in assay [1], 6100 nM; on VEGF-2, 160 nM; on TIE2, 1100 nM; at PDGFRβ, 170 nM.
`Nc1ncnc2c1c(-c1cccc(O)c1)cn2C1CC(CN2CCCC2)C1` (centres unmarked) [Compound 1, 3-[4-amino-7-(3-pyrrolidin-1-ylmethylcyclobutyl)-7H-pyrrolo[2,3-d]pyrimidin-5-yl]phenol]: the IC50 against IGF1R was 60 nM; against FAK, 1800 nM; in assay [1], 77 nM; on VEGF-2, 180 nM; at TIE2, 520 nM; against PDGFRβ, 97 nM.
Consider `NCC1CC(n2cc(-c3ccc4[nH]ccc4c3)c3c(N)ncnc32)C1` (centres unmarked) [Compound 3, 7-(3-Aminomethylcyclobutyl)-5-(1H-indol-5-yl)-7H-pyrrolo[2,3-d]pyrimidin-4-ylamine], for which the IC50 against IGF1R came to 930 nM; at FAK it was 7900 nM; in assay [1] it was 370 nM; at VEGF-2 it was 10 nM; against TIE2, 380 nM; against PDGFRβ it was 150 nM.
Take `Nc1ncnc2c1c(-c1cccc(O)c1)cn2C1CC(CN2CCCC2)C1` (centres unmarked) [Compound 2, 3-[4-Amino-7-(3-pyrrolidin-1-ylmethylcyclobutyl)-7H-pyrrolo[2,3-d]pyrimidin-5-yl]phenol]: the IC50 at IGF1R was 110 nM; against FAK, 2700 nM; in assay [1], 260 nM; against VEGF-2, 195 nM; on TIE2, 870 nM; on PDGFRβ it was 120 nM.
